Laboratory results from US9090583B2, “Benzopyrone estrogen receptor regulator” (BEIJING SHENOGEN PHARMA GROUP LTD., priority 2010, dated 2015).
≈ marks a conversion by molar mass, not a printed value. Where two headings read alike, the source gives them in different places.

Legend:
CoC1 cells = assay: CellTiter-Glo Luminescent Cell Viability Assay on ovary cancer CoC1 cells; type: cell-based; conditions: 72 hours, read-out: Inhibition of the viability of ovary cancer cells, IC50
Procedure: B: In Vitro CellTiter-Glo® Luminescent Cell Viability Assay on Ovary Cancer CoC1 Cells
(§1) The ovary cancer CoC1 cells were obtained from Cancer hospital, Chinese Academy of Medical Sciences and maintained in RPMI-1640 and 10% fetal calf serum at 37° C., under 5% CO2 atmosphere. The cells were seeded on 96-well plate at a density of 6×10^3 cells per well. CoC1 cells were treated with a test compound dissolved in DMSO at the concentrations of zero, 0.3 μM, 0.5 μM, 1 μM, 2 μM, 3 μM, 5 μM, 10 μM, 30 μM, 50 μM and 100 μM for 72 hours. Treated cells were examined by CellTiter-Glo® Luminescent Cell Viability Assay Kit (Promega), and luminescence values were recorded with Envision.

HO8910 cells = assay: CellTiter-Glo Luminescent Cell Viability Assay on ovary cancer HO8910 cells; type: cell-based; conditions: HO-8910 cells; 72 hours; read-out: Inhibition of the viability of ovary cancer cells, IC50
Procedure: A: In Vitro CellTiter-Glo® Luminescent Cell Viability Assay on Ovary Cancer HO8910 Cells
(§2) Ovary cancer HO8910 cells were obtained from Type Culture Collection of the Chinese Academy of Sciences, Shanghai, and maintained in RPMI-1640 and 10% fetal calf serum at 37° C., under 5% CO2 atmosphere. The cells were seeded on 96-well plate at a density of 6×10^3 cells per well. HO8910 cells were treated with a test compound dissolved in DMSO at the concentrations of zero, 0.3 μM, 0.5 μM, 1 μM, 2 μM, 3 μM, 5 μM, 10 μM, 20 μM, 30 μM, 50 μM and 100 μM for 72 hours. Treated cells were examined by CellTiter-Glo® Luminescent Cell Viability Assay Kit (Promega), and luminescence values were recorded with Envision.

SK-OV3 cells = assay: CellTiter-Glo Luminescent Cell Viability Assay on ovary cancer SK-OV3 cells; type: cell-based; conditions: read-out: Inhibition of the viability of ovary cancer cells, IC50
Procedure: C: In Vitro CellTiter-Glo® Luminescent Cell Viability Assay on Ovary Cancer SK-OV3 Cells
as §1, with “ovary cancer SK-OV3 cells were” for “ovary cancer CoC1 cells were”, “per well. SK-OV3 cells were” for “per well. CoC1 cells were”, “μM, 10 μM, 20 μM, 30” for “μM, 10 μM, 30”

MDA-MB-231 cells = assay: CellTiter-Glo Luminescent Cell Viability Assay on ER-negative breast cancer MDA-MB-231 cells; type: cell-based; conditions: average ± standard deviation when tested more than 3 times, read-out: Inhibition of the viability of breast cancer cells, IC50
Procedure, shortened: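 Cells seeded at 6×10^3 per well in DMEM with 10% FCS and exposed 72 h to compound at 0 to 100 μM (twelve concentrations, DMSO vehicle). Viability measured by CellTiter-Glo luminescence.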

MCF7 cells = assay: CellTiter-Glo Luminescent Cell Viability Assay on ER-positive breast cancer MCF-7 cells; type: cell-based, human; conditions: average ± standard deviation when tested more than 3 times, read-out: Inhibition of the viability of breast cancer cells, IC50
Procedure, shortened: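 MCF7 cells (DMEM, 10% FCS, 37 °C) treated 72 h with compound at 0–100 μM (0.3, 0.5, 1, 2, 3, 5, 10, 20, 30, 50, 100 μM). Viability measured by CellTiter-Glo luminescence.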

Molt-4 cells = assay: CellTiter-Glo Luminescent Cell Viability Assay on leukemia Molt-4 cells; type: cell-based; conditions: 72 hours, read-out: Inhibition of the viability of leukemia cells, IC50
Procedure: C: In Vitro CellTiter-Glo® Luminescent Cell Viability Assay on Leukemia Molt-4 Cells
as §2, with “The leukemia Molt-4” for “Ovary cancer HO8910”, “ATCC” for “Type Culture Collection of the Chinese Academy of Sciences, Shanghai,”, “[…]” for “HO8910”

HL-60 cells = assay: CellTiter-Glo Luminescent Cell Viability Assay on leukemia HL-60 cells; type: cell-based, human; conditions: 72 hours, read-out: Inhibition of the viability of leukemia cells, IC50
Procedure: B: In Vitro CellTiter-Glo® Luminescent Cell Viability Assay on Leukemia HL-60 Cells
as §2, with “The leukemia HL-60” for “Ovary cancer HO8910”, “ATCC” for “Type Culture Collection of the Chinese Academy of Sciences, Shanghai,”, “IMDM” for “RPMI-1640”, “HL-60” for “HO8910”

K562 cells = assay: CellTiter-Glo Luminescent Cell Viability Assay on leukemia K562 cells; type: cell-based, human; conditions: 72 hours, read-out: Inhibition of the viability of leukemia cells, IC50
Procedure: A: In Vitro CellTiter-Glo® Luminescent Cell Viability Assay on Leukemia K562 Cells
as §2, with “The leukemia K562” for “Ovary cancer HO8910”, “ATCC” for “Type Culture Collection of the Chinese Academy of Sciences, Shanghai,”, “IMDM” for “RPMI-1640”, “K562” for “HO8910”

Hep3B2.1-7 cells = assay: MTT assay, in vitro growth of liver cancer Hep3B2.1-7 cells; type: cell-based; conditions: 72 hours; for IC50: read-out: Inhibition on liver cancer cells, IC50
Procedure: The liver cancer Hep3B2.1-7 cells were obtained from ATCC. Cells were incubated in 1640 culture medium with 5% fetal calf serum and 100 U/ml double-antibody in a cell incubator at 37° C., 5% CO2 atmosphere and passaged via conventional methods. The sample was dissolved in DMSO, formulated into 50 mg/ml stocking solution, and stored at 4° C. The test solutions at 50, 25, 12.5 and 6.25 μg/ml were formulated with culture medium immediately before use.
The adherent cells were digested with cell digestive solution, and then the exfoliated cells were collected and counted. The cell suspension was formulated with 1640 culture medium containing 5% fetal calf serum (5.0×10^4/ml). The cell suspension was seeded on 96-well plate with 100 μl/well, and maintained in a cell incubator at 37° C., 5% CO2 atmosphere for 24 hours. After that, the compounds at various concentrations were added, where solvent was taken as negative control and Taxol as positive control. 10 μl MTT (5 mg/ml) was added after 72 hours. The supernatant was removed after cultivation for 3 hours more, 150 μl DMSO was added and the formazan was dissolved on shaking. OD values were measured at 570 nm after homogeneous mixing, and inhibition rate and IC50 values were calculated based on the mean of OD values from 3 wells.

[1] = Homo sapiens, SK-OV-3, 72 hours

| SMILES | IC50 (CoC1 cells) | IC50 (HO8910 cells) | IC50 (SK-OV3 cells; [1]) | IC50 (MDA-MB-231 cells; Homo sapiens, MDA-MB-231, 72 h) | IC50 (MCF7 cells; Homo sapiens, MCF7, 72 h) | IC50 (Molt-4 cells; Homo sapiens) | IC50 (HL-60 cells; Homo sapiens) | IC50 (K562 cells; Homo sapiens) | IC50 (Hep3B2.1-7 cells) | IC50 (SK-OV3 cells; 72 hours) | IC50 (MDA-MB-231 cells; 72 hours) | IC50 (MCF7 cells; 72 hours) | Inhibition on liver cancer cells, IC50 (Hep3B2.1-7 cells) | IC50 (Molt-4 cells) | IC50 (HL-60 cells) | IC50 (K562 cells) |
| --- | --- | --- | --- | --- | --- | --- | --- | --- | --- | --- | --- | --- | --- | --- | --- | --- |
| COc1c(-c2ccc(Cl)c(F)c2)oc2c(CC=C(C)C)c(O)c(CC=C(C)C)c(OC)c2c1=O [Compound 84, 2-(3-fluoro-4-chlorophenyl)-7-hydroxy-3,5-dimethoxy-6,8-di(3-methyl-2-buten-1-yl)-4H-benzopyran-4-one] | 23.4 µM | 23.4 µM | 15.7 µM | 13.5 µM | 6.89 µM | – | – | – | – | – | – | – | – | – | – | – |
| COc1c(-c2ccc(F)c(F)c2)oc2c(CC=C(C)C)c(O)c(CC=C(C)C)c(OC)c2c1=O [Compound 83, 2-(3,4-difluorophenyl)-7-hydroxy-3,5-dimethoxy-6,8-di(3-methyl-2-buten-1-yl)-4H-benzopyran-4-one] | – | – | – | 11.3 ± 0.86 µM | 10.6 ± 3.06 µM | > 100 µM | > 100 µM | > 100 µM | – | – | – | – | – | – | – | – |
| COc1c(-c2cncs2)oc2c(CC=C(C)C)c(O)c(CC=C(C)C)c(O)c2c1=O [Compound 25, 2-(thiazol-5-yl)-5,7-dihydroxy-3-methoxy-6,8-di(3-methyl-2-buten-1-yl)-4H-benzopyran-4-one] | 14.3 µM | > 100 µM | 12.6 µM | 17.3 ± 6.5 µM | 9.19 ± 2.47 µM | > 100 µM | > 100 µM | > 100 µM | – | – | – | – | – | – | – | – |
| COc1ccc(-c2cc(=O)c3c(O)c(CC=C(C)C)c(O)c(CC=C(C)C)c3o2)cc1Cl [Compound 90, 2-(3-chloro-4-trimethoxyphenyl)-5,7-dihydroxy-6,8-di(3-methyl-2butylene-1-yl)-4H-benzopyran-4-one] | > 100 µM | > 100 µM | – | – | – | – | – | – | – | > 100 µM | 10.7 ± 1.38 µM | 8.98 µM | – | – | – | – |
| COc1c(-c2ccc(C(N)=O)cc2)oc2c(CC=C(C)C)c(O)c(CC=C(C)C)c(O)c2c1=O [Compound 60, 4-[5,7-dihydroxy-3-methoxy-6,8-di(3-methyl-2-buten-1-yl)-4-oxo-4H-benzopyran-2-yl]benzamide] | – | – | – | 6.36 µM | 3.02 µM | – | – | – | 9.95 µg/mL (≈ 21.5 µM) | – | – | – | – | – | – | – |

Next, values leading:

| IC50 (CoC1 cells) | IC50 (HO8910 cells) | IC50 (SK-OV3 cells; [1]) | IC50 (MDA-MB-231 cells; Homo sapiens, MDA-MB-231, 72 h) | IC50 (MCF7 cells; Homo sapiens, MCF7, 72 h) | IC50 (Molt-4 cells; Homo sapiens) | IC50 (HL-60 cells; Homo sapiens) | IC50 (K562 cells; Homo sapiens) | IC50 (Hep3B2.1-7 cells) | IC50 (SK-OV3 cells; 72 hours) | IC50 (MDA-MB-231 cells; 72 hours) | IC50 (MCF7 cells; 72 hours) | Inhibition on liver cancer cells, IC50 (Hep3B2.1-7 cells) | IC50 (Molt-4 cells) | IC50 (HL-60 cells) | IC50 (K562 cells) | SMILES |
| --- | --- | --- | --- | --- | --- | --- | --- | --- | --- | --- | --- | --- | --- | --- | --- | --- |
| 9.23 µM | 17.6 µM | 7.23 µM | 10.3 ± 0.56 µM | 6.17 ± 0.05 µM | – | – | – | – | – | – | – | – | – | – | – | COc1cc(-c2oc3c(CC=C(C)C)c(O)c(CC=C(C)C)c(O)c3c(=O)c2OC)ccn1 [Compound 27, 2-(2-methoxypyridin-4-yl)-5,7-dihydroxy-3-methoxy-6,8-di(3-methyl-2-buten-1-yl)-4H-benzopyran-4-one] |
| 5.19 µM | 15.7 µM | 7.22 µM | 11.3 ± 1.38 µM | 6.51 ± 1.42 µM | > 100 µM | > 100 µM | > 100 µM | – | – | – | – | – | – | – | – | COc1c(-c2cc(F)cc(F)c2)oc2c(CC=C(C)C)c(O)c(CC=C(C)C)c(O)c2c1=O [Compound 2, 2-(3,5-difluorophenyl)-5,7-dihydroxy-3-methoxy-6,8-di(3-methyl-2-buten-1-yl)-4H-benzopyran-4-one] |
| 17.8 µM | 24.3 µM | 40.1 µM | 12.8 ± 1.78 µM | 11 ± 1.34 µM | – | – | – | – | – | – | – | – | – | – | – | COc1ccc(-c2oc3c(CC=C(C)C)c(O)c(CC=C(C)C)c(O)c3c(=O)c2OC)cn1 [Compound 26, 2-(6-methoxypyridin-3-yl)-5,7-dihydroxy-3-methoxy-6,8-di(3-methyl-2-buten-1-yl)-4H-benzopyran-4-one] |
| – | 14 µM | 6.42 µM | 6.37 ± 0.03 µM | 4.95 ± 0.65 µM | 10.3 µM | 10.1 µM | 8.65 µM | 1.38 µg/mL (≈ 3.02 µM) | – | – | – | – | – | – | – | COc1c(-c2ccc(F)c(F)c2)oc2c(CC=C(C)C)c(O)c(CC=C(C)C)c(O)c2c1=O [Compound 4, 2-(3,4-difluorophenyl)-5,7-dihydroxy-3-methoxy-6,8-di(3-methyl-2-buten-1-yl)-4H-benzopyran-4-one] |
| > 100 µM | 21.6 µM | > 100 µM | 10.9 ± 2.22 µM | 12.6 ± 0.68 µM | – | – | – | 1.09 µg/mL (≈ 2.49 µM) | – | – | – | – | – | – | – | COc1c(-c2ccc(F)cc2)oc2c(CC=C(C)C)c(O)c(CC=C(C)C)c(O)c2c1=O [Compound 7, 2-(4-fluorophenyl)-5,7-dihydroxy-3-methoxy-6,8-di(3-methyl-2-buten-1-yl)-4H-benzopyran-4-one] |
| 11.8 µM | 22.3 µM | – | – | – | – | – | – | – | 24.3 µM | 9.96 ± 1.97 µM | 8.58 ± 0.24 µM | 1.46 µg/mL | 15.3 µM | 17.9 µM | 12.8 µM | COc1c(-c2ccc(F)c(Cl)c2)oc2c(CC=C(C)C)c(O)c(CC=C(C)C)c(O)c2c1=O [Compound 8, 2-(3-chloro-4-fluorophenyl)-5,7-dihydroxy-3-methoxy-6,8-di(3-methyl-2-butylene-1-yl)-4H-benzopyran-4-one] |
